Measurements as given in US20220397569A1, “ASSAY FOR RAPID EVALUATION OF CHOROIDAL MAST CELL DEGRANULATION” (THE JOHNS HOPKINS UNIVERSITY, priority 2019, published 2022).
Counter-ions that a name gives are not always drawn. Like-named read-outs stand apart in the source and are kept apart here.

Tests used:
[1] = mice, osteoarthritis model; cited from earlier work
[2] = system: choroidal MC degranulation; type: in vivo, rat
Description: Hydrogel preparation and injection. […] All components were then mixed together by vortex and placed on ice. The final solution was loaded into an insulin syringe with a 31-gauge needle (BD Biosciences, San Jose, Calif., USA) and then, exposed to UV light (AnalytikJena, Upland, Calif., USA) for 1.5 minutes. The release and stability of the hydrogel were evaluated in vitro in PBS, pH 7.4 at 37° C.20. The amount of 48/80 released was measured using bicinchoninic acid (BCA) assay.
Alcian blue staining. After RPE removal, eyecups were fixed in methanol-formalin-acetic acid cocktail for 30 minutes and MCs were further stained with 0.05% Alcian blue (pH 5.0) in 0.02 M sodium acetate buffer for 45 minutes. Choroids were isolated after eyecups were split at the meridian and the number of non-degranulated and degranulated MCs were counted.
RPE degeneration. After the choroid/sclera eyecup was stained with anti-RPE65 Ab, 4-5 fields from the gel and non-gel areas of each choroid were captured as optimized z-stacks at 10 or 20× magnification with Zeiss LSM710. Images were exported to ImageJ software, converted into 8-bit gray color and then, thresholded. The dark area was considered degenerating RPE. To exclude the area of RPE nucleus (unstained with anti-RPE65 Ab, therefore dark) from the total dark area, particle sizes ranging from 100-infinity (pixels^2) were analyzed so nuclei were excluded. Percentage of RPE degeneration was averaged per choroid and then, quantified.
Retinal and choroidal thickness. Eight μm cryosections through the optic nerve were stained with Picrosirius Red Stain Kit (Polysciences, Inc, Warrington, Pa., USA) for 5 minutes as recommended by the manufacturer. After rinsing in hydrochloric acid and dehydrating in ethanol, sections were cover-slipped with Permount Mounting Medium (Thermo Fisher Scientific, Waltham, Mass., USA). The sections were then imaged with a Zeiss Photomic II microscope at 10×, and adjacent overlapping images of each section were taken from Ora serrata to Ora serrata. The overlapping images were then stitched using Adobe Photoshop and a panorama image was generated. The entire retina and choroid of each panorama image was precisely hand-traced and areas of the retina and choroid, respectively, were measured using ImageJ.
(§1) Electroretinogram (ERG). After overnight dark adaptation, rats were deeply anesthetized followed by pupil dilation. The rats were placed on a heated platform and full-field scotopic ERGs were elicited by white light flashes with corneal electrodes at intensities ranging from 0.01 to 1 cd·s/m^2 using the Celeris ERG system (Diagnosys LLC, Lowell, Mass., USA). The amplitude of the a- and b-waves was measured from the a-wave trough to the b-wave peak.
Volumetric and sphericity measurement. Volumetric and sphericity measurements were performed in the rats to analyze changes in shape and size of choroidal macrophages/monocytes stained with Iba1 as previously reported.^23 Briefly, randomly chosen 4-5 fields of optimized 40× magnification z-stacks per choroid captured with Zeiss LSM710 were opened in Surpass View of Imaris software and surfaces (surface detail 1.5 μm) were created, using background subtraction (0.5 μm). Voxel number filtering was applied to remove nonspecific particles in the surfaces created. Cells touching others or ones which had only a portion of the cell body visible were omitted from the volume rendering and then, the cell volume and sphericity were quantified with Imaris software.
(§2) Drug treatments. Rats were pretreated for 1-2 days prior to 48/80 hydrogel injection with either oral treatment of ketotifen fumarate (15 mg/kg) or PBS twice daily. MC tryptase inhibitor APC 366 (5 mg/kg, CAS 258932-85-8, R&D Systems, Minneapolis, Minn.)^24 or control vehicle was administered subcutaneously once daily for 8 weeks.

[3] = system: choroidal MCs; assay: Ex vivo eyecup assay after oral pretreatment of rats; set-up: species or system rat; settings: oral 15 mg/kg twice daily for 4 days prior to enucleation; eyecups in 48/80 300 μg/ml 3 hours; compared to PBS
Description: (§3) Ex vivo assays. An ex vivo assay was developed to evaluate drugs quickly and efficiently. After enucleation, the anterior segments and retinas were excised and the eyecups were split at the meridian and divided in halves. Then, eyecups were incubated with 300 μg/mL of 48/80 with or without 300 μg/mL of ketotifen fumarate in serum free DMEM in a 48-well plate for 3 hours. To evaluate oral ketotifen fumarate potential to prevent MC degranulation, rats were treated orally twice daily with ketotifen fumarate (15 mg/kg) in PBS or with PBS as control for 4 days and 2 hours prior to enucleation on the 5th day. Eyes were enucleated and exposed in 48/80 serum free DMEM for 3 hours. After washing, RPE was removed and the eyecup fixed for histochemistry. The choroid was isolated from the sclera and MCs were stained for NSE activity and viewed on the Zeiss LSM710 for the autofluorescence of the reaction product. The numbers of non-degranulated and degranulated cells were counted in the whole choroid. […]
(§4) Volumetric and sphericity measurement. […] Cells touching others or ones which had only a portion of the cell body visible were omitted from the volume rendering and then, the cell volume and sphericity were quantified with Imaris software.

[4] = system: choroidal MCs; assay: Ex vivo eyecup assay, co-incubation with 48/80 (MC degranulation, macrophage volume and sphericity); type: cell-based; settings: S/D rat eyecups, 48/80 300 μg/mL with ketotifen fumarate 300 μg/mL, 3 hours
Description: as §3, §4

[5] = Pharmacokinetic study of oral ketotifen fumarate in eye tissue (LC/MS-MS); type: in vivo, rat; settings: 3 mg/kg once daily by gavage, sacrificed on the 5th day
Description: Pharmacokinetic study. Ketotifen fumarate quantification in plasma and eye tissue was conducted using high-performance liquid chromatography with tandem mass spectrometry (LC/MS-MS). Briefly, acetonitrile containing 0.5 μM losartan as internal standard was used to extract ketotifen from choroid and retina. Standards were prepared by spiking ketotifen fumarate in naive tissue from […] in a half log dilution series. Samples were weighed and placed in low retention microcentrifuge tubes with 5 μL extraction solution/mg tissue and pestle homogenized. Samples were vortexed followed by centrifugation at 16 000 g for 5 minutes at 4° C. The supernatants were transferred to a 96-well plate and 2 μL were injected for analysis. Samples were analyzed on an UltiMate 3000 UHPLC coupled to Q Exactive Focus orbitrap mass spectrometer (Thermo Fisher Scientific, Waltham, Mass., USA) using an Agilent EclipsePlus C18 RRHD (1.8 μm; 2.1. 100 mm) column. The mobile phase consisted of water+0.1% formic acid, and acetonitrile+0.1% formic acid. […] Samples were analyzed in positive ion mode via heated electrospray with capillary temperature set at 350° C. and a spray voltage of 3.5 kV. […] Data were acquired and quantified with Xcalibur software (Thermo Fisher Scientific, Waltham, Mass., USA).

[6] = system: RBL-2H3 cells; assay: β-hexosaminidase release assay for MC degranulation in RBL-2H3 cells; type: cell-based; settings: Rattus norvegicus, RBL-2H3, 0.75 h; 48/80 10 μg/mL, ketotifen fumarate 10 μg/mL, 45 minutes
Description: In vitro assays. RBL-2H3 cells (CRL-2256, ATCC, Manassas, Va., USA) were used for the in vitro assay for MC degranulation. Cell degranulation was assessed by the (3-hexosaminidase release as previously described.^22 A density of 50 000 cells/well was plated overnight in a 96-well plate. Ten μg/mL of 48/80 or 10 μg/mL of ketotifen fumarate (1(2628, Millipore Sigma, St Louis, Mo., USA)+10 μg/mL of 48/80 dissolved in 100 μL serum free media (DMEM with 1.0 g/L glucose) (Thermo Fisher Scientific, Waltham, Mass.) were added to each well and incubated for 45 minutes. Then, the cells were lysed using 1% triton X-100 to determine MC β-hexosaminidase that was still cell associated. Twenty μL of the supernatant and then, the cell lysate was collected and added to 50 μL of cold 4-Nitrophenyl N-acetyl-B-d-glucosaminide (1.3 mg/mL in Citrate Buffer, pH 4.5, Millipore Sigma, St Louis, Mo., USA) to detect the amount of β-hexosaminidase released. […] The plate was read at 405 nm wavelength using a microplate reader (ELx808, BioTek, Winooski, Vt., USA). Degranulation was calculated as the percentage of β-hexosaminidase activity measured in the supernatants relative to the total amount of β-hexosaminidase activity in the cells exposed to 1% triton X-100 (100% degranulation).

[7] = Tolerability of oral ketotifen fumarate in rats (RPE, body weight, ERG); type: in vivo, rat
Description: as §1, §2

[8] = rats; cited from earlier work
[9] = APC 366 5 mg/kg subcutaneous daily, 4 weeks
[10] = oral ketotifen fumarate 15 mg/kg twice daily, 4 weeks post 48/80-hydrogel implantation

ketotifen fumarate in choroid [5]	ketotifen fumarate in retina [5]	Compound	inflammation (transcriptional expression of IL-1β, IL-6, IL-8, CC-motif ligand 2, MMP-3) [1]	RPE degeneration [2, 9]	choroidal macrophage/monocyte activation [2, 9]	retinal and choroidal thickness ([2]; APC 366 5 mg/kg subcutaneous daily, 8 weeks)	ERG amplitude, a- and b-waves ([2]; rat, in vivo, sc, 5 mg/kg)	MC degranulation prevented [3]	macrophage activation [3]	choroidal macrophage activation (sphericity, volume of Iba1+ cells) [4]	prevention of 48/80-induced MC degranulation [4]	inhibition at 10 µg/mL [6]	MC degranulation [2, 10]	RPE degeneration [2, 10]	retina and choroidal thickness ([2]; oral ketotifen fumarate 15 mg/kg twice daily, 8 weeks post implantation)	RPE morphology or viability ([7]; normal S/D rats, oral 15 mg/kg twice daily for 6 wk)	ERG amplitudes after drug treatment alone ([7]; normal rats, 6 weeks of drug treatment)	adverse effects ([7]; oral administration)	growth of the animals (body weight) ([7]; oral twice daily for 6 wk after 48/80 implantations)	non-REM and REM sleep [8]
		NC(=O)[C@@H]1CCCN1C(=O)[C@H](CCCN=C(N)N)NC(=O)c1ccc2ccccc2c1O [APC 366]	suppressed inflammation	RPE degeneration was significantly inhibited	choroidal macrophage/monocyte activation was prevented	significantly less retinochoroidal thinning	reduction in ERG amplitude of both a- and b-waves was prevented													
13 to 29 nM	12 to 52 nM	CN1CCC(=C2c3ccccc3CC(=O)c3sccc32)CC1 [ketotifen fumarate]						37%	significantly prevented macrophage activation	choroidal macrophage activation was prevented	prevented MC degranulation, equivalent to the level of untreated eyecups	56%	significantly prevented	significantly prevented RPE degeneration	retinochoroidal thinning was inhibited	did not affect RPE morphology or viability	normal	did not manifest any adverse effects	nor did it affect growth of the animals	dose dependently decreased non-rapid eye movement (REM) sleep and increased REM sleep
